Experimental data as given in EP3613735A1, “NOVEL SIRT 1 ACTIVATOR AND MEDICINAL USE THEREOF” (Pusan National University Industry - University Cooperation …, priority 2017, dated 2018).

Legend:
Assay type in all cases: cell-based
skin fibroblasts = assay: β-galactosidase staining of UVB-induced cell aging; conditions: UVB of 10 mJ/cm^2; pretreated at 10 µM for 24 hours
Experimental: β-galactosidase is used to induce cellular aging of fibroblasts, which are the main cells of the epidermal layer of skin, by using UVB, the most important environmental factor in skin aging, as the most common marker for cell aging and β-galactosidase staining was performed to analyze the cell aging protection of Compound 32u. […]

PPARβ/δ [1] = target: T1, PPARβ/δ (Homo sapiens, UniProt Q03181); assay: PPAR response element (PPRE)-luciferase assay in fibroblasts; conditions: fibroblasts overexpressing PPARβ/δ; compared with GW501516
T1 construct: endogenous in cells
T1 sequence (Q03181 1-441): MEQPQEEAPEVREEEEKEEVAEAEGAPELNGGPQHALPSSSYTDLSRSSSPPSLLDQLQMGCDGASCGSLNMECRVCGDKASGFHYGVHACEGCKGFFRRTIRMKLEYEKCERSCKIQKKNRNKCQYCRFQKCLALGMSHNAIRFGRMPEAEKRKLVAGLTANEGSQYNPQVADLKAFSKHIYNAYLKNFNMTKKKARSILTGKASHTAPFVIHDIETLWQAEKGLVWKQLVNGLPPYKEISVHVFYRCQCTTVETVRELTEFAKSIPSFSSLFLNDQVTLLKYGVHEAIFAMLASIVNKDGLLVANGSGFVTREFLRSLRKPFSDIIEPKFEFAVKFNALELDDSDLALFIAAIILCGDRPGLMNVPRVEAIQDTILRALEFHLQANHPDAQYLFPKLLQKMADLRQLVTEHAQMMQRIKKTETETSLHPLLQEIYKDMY
Experimental: Next, to analyze the effect of PPARβ/δ activity of Compound 69c, a PPAR response element (PPRE)-luciferase assay was performed on fibroblasts, which are the main cells of the skin epithelial layer. A binding site region of PPARβ/δ, i.e. plasmids in which the PPRE region was bound upstream of the luciferase gene were transfected by treating the cells with lipofectamine. Through this process, DNA is surrounded by lipofectamine, making it easier to pass the cell membrane. In addition, it is possible to identify which of the PPAR subtypes is effective by overexpressing PPARβ/δ in addition to the endogenous PPAR subtype. 18 to 24 hours after transduction, at least 5 hours after treatment with the candidate compound, fluorescence was measured by addition of the substrate of the luciferase assay system. Luciferase expression amount can be analyzed by the fluorescence value, and the activity level of PPARβ/δ can be analyzed through the above results.

PPARβ/δ [2] = target: T1, PPARβ/δ; assay: PPARβ/δ transfer into the nucleus, western blot; conditions: 1 hour and 30 minutes after treating cells
SIRT 1 = SIRT 1 expression, real-time PCR and western blot
Experimental: To confirm whether Compound 69c increases the expression of SIRT 1 through the activation of PPARβ/δ, real-time PCR and western blot were performed.

p53 = assay: Acetylation of p53 increased by UVB
From the text: Furthermore, SIRT 1 is known to exert its function through deacetylation of various substrate proteins.

[3] = test system: reactive oxygen species (ROS); assay: Reactive oxygen species with DCF-DA fluorescent dye
pro-collagen = assay: Pro-collagen expression in UVB photoaging of skin fibroblasts, Western blotting; conditions: skin fibroblasts pretreated with 10 µM one hour before 8 mJ/cm^2 UVB; after 6 hours
Experimental: First, the effect of Compound 69c on pro-collagen expression by cell photoaging was analyzed. A collagen reduction model by UVB was constructed using skin fibroblasts to perform the experiments. Skin fibroblasts were pretreated with 10 µM Compound 69c one hour ago and irradiated with 8 mJ/cm^2 of UVB. After 6 hours, the cells were lysed and the expression of pro-collagen was confirmed via Western blotting.

MMP1 = MMP1 expression in UVB photoaging of skin fibroblasts, Western blotting; conditions: skin fibroblasts pretreated with 10 µM 1 hour before 8 mJ/cm^2 UVB; after 6 hours
Experimental: (§1) Based on this, in order to confirm the effect of Compound 69c on the expression level of intracellular MMPs, 10 µM of Compound 69c was pretreated 1 hour prior to skin fibroblasts and irradiated with UVB of 8 mJ/cm^2. After 6 hours, cells were lysed and the expression levels of MMP1 and MMP13 were confirmed by Western blotting.

MMP13 = MMP13 expression in UVB photoaging of skin fibroblasts, Western blotting; conditions: skin fibroblasts pretreated with 10 µM 1 hour before 8 mJ/cm^2 UVB; after 6 hours
Experimental: as §1

CN1CCN(Cc2ccc3oc(-c4ccccc4NC(=O)c4ccc5ccccc5c4)nc3c2)CC1 [Compound 69c, N-(2-(5-((4-Methylpiperazin-1-yl)methyl)benzo[d]oxazol-2-yl)phenyl)-2-naphthamide]
β-galactosidase staining (skin fibroblasts): reduced | PPARβ/δ activity (PPRE-luciferase) (PPARβ/δ [1]): higher PPARβ/δ activity than GW501516 | PPARβ/δ transfer in the nucleus (PPARβ/δ [2]): increase in PPARβ/δ transfer in the nucleus | mRNA expression level of SIRT 1 (SIRT 1; real-time PCR): increased | protein expression level of SIRT 1 (SIRT 1; western blot): increased | acetylation of p53 (p53): inhibited acetylation of p53 increased by UVB | reactive oxygen species induced by UVB [3]: inhibited | expression of pro-collagen (pro-collagen): increased | expression of MMP1 (MMP1): reduced | expression of MMP13 (MMP13): reduced
